Measurements as given in patent US7655804B2, “Diketohydrazine derivative compounds and drugs containing the compounds as the active ingredient” (Ono Pharmaceutical Co., Ltd., priority 2002, dated 2010).

Target: T1, cathepsin K (Homo sapiens, UniProt P43235)
T1 sequence (P43235 115-329): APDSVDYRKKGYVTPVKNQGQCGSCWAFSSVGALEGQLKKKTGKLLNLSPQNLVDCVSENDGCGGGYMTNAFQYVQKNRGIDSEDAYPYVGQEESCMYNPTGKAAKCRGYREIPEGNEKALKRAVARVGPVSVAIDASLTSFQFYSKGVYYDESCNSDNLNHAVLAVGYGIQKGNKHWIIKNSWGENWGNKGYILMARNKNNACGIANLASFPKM
Assay: Measurement of cathepsin K inhibitory activity
Type: biochemical
Settings: Dixon plot, 37° C., pH 5.5
Protocol: 65 μL of cathepsin K enzyme reaction buffer (50 mmol/L of 2-(N-morpholino)ethanesulfonate, 2 mmol/L of ethylenediaminetetraacetate (EDTA) and 4 mmol/L of dithiothreitol (DTT) were mixed to adjust to pH 5.5), 5 μL of cysteine protease inhibitor solution of several concentrations, 20 μL of synthesized substrate (t-butyloxycarbonyl-L-alanyl-glycyl-L-prolyl-L-arginine-4-methyl-chromanyl-7-amide) solution of several concentrations and 10 μL of cathepsin K enzyme solution were mixed and the increase of fluorescence intensity when reacted at 37° C. was measured (λex (excitation wavelength)=355 nm, λem (fluorescence wavelength)=460 nm). As to the substrate and the compound of the present invention, enzyme reactions were carried out in combination of several appropriate concentrations and Dixon plotting was prepared, to define the absolute value of X-coordinate of the intersection point of the graph as Ki value.

Ki [nM]	SMILES
14	CC(C)(C)CC(NC(=O)C1CCCCCC1)C(=O)C(=O)NN1CCCS1(=O)=O (stereo not drawn) [2(6)]
2.5	CC(C)C[C@H](NC(=O)C1CCCCC1)C(=O)C(=O)NN=C1SCCN1C [8(1)]
4	CC(C)(C)CC(NC(=O)C1CCCCC1)C(=O)C(=O)NN1C(=O)CCC1=O (stereo not drawn) [example 5]
